Measured values published in patent publication US12084420B2, “Indoline compounds for inhibiting KIF18A” (Volastra Therapeutics, Inc., priority 2021, dated 2024).

Target: hKIF18A (1-374) (Homo sapiens (Human), UniProt Q8NI77)
Experiment: Inhibition of KIF18A microtubule-dependent ATPase activity (ADP-Glo)
Conditions: not given

Chain of hKIF18A (1-374) (Q8NI77 whole entry, looked up): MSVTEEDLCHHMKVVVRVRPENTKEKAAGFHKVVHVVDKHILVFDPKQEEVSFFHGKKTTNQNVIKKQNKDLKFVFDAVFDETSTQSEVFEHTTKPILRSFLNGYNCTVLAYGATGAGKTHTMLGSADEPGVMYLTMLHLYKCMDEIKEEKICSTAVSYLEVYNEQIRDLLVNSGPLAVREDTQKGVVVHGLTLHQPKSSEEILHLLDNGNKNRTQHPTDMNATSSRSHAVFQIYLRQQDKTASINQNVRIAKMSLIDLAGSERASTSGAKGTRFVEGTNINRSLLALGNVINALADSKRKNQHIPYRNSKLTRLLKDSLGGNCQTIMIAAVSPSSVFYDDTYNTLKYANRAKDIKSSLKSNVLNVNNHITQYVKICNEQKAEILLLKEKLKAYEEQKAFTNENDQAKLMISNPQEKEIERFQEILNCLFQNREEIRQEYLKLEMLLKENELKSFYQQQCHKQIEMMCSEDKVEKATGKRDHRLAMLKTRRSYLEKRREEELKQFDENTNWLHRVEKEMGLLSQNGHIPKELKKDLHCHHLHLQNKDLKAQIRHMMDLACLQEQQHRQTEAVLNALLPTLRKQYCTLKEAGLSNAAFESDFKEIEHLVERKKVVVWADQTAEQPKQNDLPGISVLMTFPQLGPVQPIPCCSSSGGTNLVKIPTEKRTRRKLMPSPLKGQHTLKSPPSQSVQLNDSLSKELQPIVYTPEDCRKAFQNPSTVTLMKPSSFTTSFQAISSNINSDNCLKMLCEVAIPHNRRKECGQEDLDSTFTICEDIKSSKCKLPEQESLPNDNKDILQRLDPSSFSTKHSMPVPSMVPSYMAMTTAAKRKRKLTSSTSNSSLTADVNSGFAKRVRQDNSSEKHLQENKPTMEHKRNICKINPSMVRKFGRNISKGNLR
Chain of hKIF18A (1-374) (Q2XVP4 whole entry partner, looked up): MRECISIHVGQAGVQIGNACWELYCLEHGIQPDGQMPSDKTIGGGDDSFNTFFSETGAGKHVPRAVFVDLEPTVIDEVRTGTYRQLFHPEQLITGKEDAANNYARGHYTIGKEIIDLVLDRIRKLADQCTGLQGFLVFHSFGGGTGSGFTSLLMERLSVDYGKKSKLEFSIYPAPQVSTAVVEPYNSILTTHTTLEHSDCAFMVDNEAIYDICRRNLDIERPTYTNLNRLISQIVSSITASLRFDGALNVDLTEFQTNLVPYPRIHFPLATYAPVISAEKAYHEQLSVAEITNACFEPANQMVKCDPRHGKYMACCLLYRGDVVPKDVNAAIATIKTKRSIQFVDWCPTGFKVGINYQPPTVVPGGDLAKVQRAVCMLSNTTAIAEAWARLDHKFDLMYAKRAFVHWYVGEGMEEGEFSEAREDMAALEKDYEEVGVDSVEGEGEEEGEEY
Chain of hKIF18A (1-374) (P02554 whole entry partner, looked up): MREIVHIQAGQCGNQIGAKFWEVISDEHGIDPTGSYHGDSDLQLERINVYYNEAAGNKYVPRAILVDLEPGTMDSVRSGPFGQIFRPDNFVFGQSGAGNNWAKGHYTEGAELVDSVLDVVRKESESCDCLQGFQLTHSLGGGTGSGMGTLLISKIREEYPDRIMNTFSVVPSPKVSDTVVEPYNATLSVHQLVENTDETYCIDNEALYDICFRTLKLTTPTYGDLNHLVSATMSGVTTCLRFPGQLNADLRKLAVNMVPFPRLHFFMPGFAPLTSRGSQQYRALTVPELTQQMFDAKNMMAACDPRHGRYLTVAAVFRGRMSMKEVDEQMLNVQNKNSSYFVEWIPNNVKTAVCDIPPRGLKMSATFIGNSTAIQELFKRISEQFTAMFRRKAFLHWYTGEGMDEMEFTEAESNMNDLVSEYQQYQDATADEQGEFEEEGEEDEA

| IC50 | SMILES |
| --- | --- |
| 100 nM | COC1CC(NS(=O)(=O)c2cccc(C(=O)N3CC4(CCC5(CC5)CC4)c4cc(NS(C)(=O)=O)ccc43)c2)C1 (stereo not drawn) [Compound 222, N-(3-methoxycyclobutyl)-3-(5″- (methylsulfonamido)dispiro[cyclopropane-1,1′-cyclohexane-4′,3″-indoline]-1″-carbonyl)benzenesulfonamide] |

Same assay, conditions: KIF18A microtubule-dependent ATPase activity, biochemical assay

| SMILES | IC50 |
| --- | --- |
| CC1(NS(=O)(=O)c2cccc(C(=O)N3CC4(CCC5(CC5)CC4)c4cc(NS(C)(=O)=O)ccc43)c2)CCOC1 (stereo not drawn) [Compound 178, 3-(5″- (methylsulfonamido)dispiro[cyclopropane-1,1′-cyclohexane-4′,3″-indoline]-1″-carbonyl)-N-(3-methyltetrahydrofuran-3-yl)benzenesulfonamide] | 17 nM |
| O=C(c1cccc(S(=O)(=O)N2CCC(F)(F)CC2)c1)N1CC2(CCCC2)c2ccccc21 [Compound 3, (3-((4,4-difluoropiperidin-1-yl)sulfonyl)phenyl)(spiro[cyclopentane-1,3′-indolin]-1′-yl)methanone] | 1600 nM |
| CCC(C)NS(=O)(=O)c1cccc(C(=O)N2CC3(CCC4(CC4)CC3)c3cc(NS(C)(=O)=O)ccc32)c1 (stereo not drawn) [Compound 170, N-(sec-butyl)-3-(5″- (methylsulfonamido)dispiro[cyclopropane-1,1′-cyclohexane-4′,3″-indoline]-1″-carbonyl)benzenesulfonamide] | 15 nM |
| CC(C)(C)CC(O)c1cccc(C(=O)N2CC3(CCC4(CC4)CC3)c3cc(NS(C)(=O)=O)ccc32)c1 (stereo not drawn) [Compound 357, N-(1″-(3-(1-hydroxy-3,3-dimethylbutyl)benzoyl)dispiro[cyclopropane-1,1′-cyclohexane-4′,3″-indolin]-5″-yl)methanesulfonamide] | 11 nM |
| CC1(C)OCC1NS(=O)(=O)c1cccc(C(=O)N2CC3(CCC4(CC4)CC3)c3cc(NS(C)(=O)=O)ccc32)c1 (stereo not drawn) [Compound 188, N-(2,2-dimethyloxetan-3-yl)-3-(5″- (methylsulfonamido)dispiro[cyclopropane-1,1′-cyclohexane-4′,3″-indoline]-1″-carbonyl)benzenesulfonamide] | 75 nM |
| CC1CN(S(=O)(=O)c2cccc(C(=O)N3CC4(CCCCC4)c4cc(NS(C)(=O)=O)ccc43)c2)CCO1 (stereo not drawn) [Compound 107, N-(1′-(3-((2-methylmorpholino)sulfonyl)benzoyl)spiro[cyclohexane-1,3′-indolin]-5′-yl)methanesulfonamide] | 470 nM |
| CC1(NS(=O)(=O)c2cccc(C(=O)N3CC4(CCC5(CC5)CC4)c4cc(NS(C)(=O)=O)ccc43)c2)COC1 [Compound 206, N-(3-methyloxetan-3-yl)-3-(5″- (methylsulfonamido)dispiro[cyclopropane-1,1′-cyclohexane-4′,3″-indoline]-1″-carbonyl)benzenesulfonamide] | 27 nM |
| CN(C)S(=O)(=O)c1cccc(C(=O)N2CC3(CCCCC3)c3cc(NS(C)(=O)=O)ccc32)c1 [Compound 42, N,N-dimethyl-3-(5′-(methylsulfonamido)spiro[cyclohexane-1,3′-indoline]-1′-carbonyl)benzenesulfonamide] | 1300 nM |
| Cn1cc(S(=O)(=O)NC(C)(C)C)cc1C(=O)N1CC2(CCCCC2)c2cc(NS(C)(=O)=O)ccc21 [Compound 145, N-(tert-butyl)-1-methyl-5-(5′-(methylsulfonamido)spiro[cyclohexane-1,3′-indoline]-1′-carbonyl)-1H-pyrrole-3-sulfonamide] | 290 nM |
| CCC(CC)NS(=O)(=O)c1cccc(C(=O)N2CC3(CCC4(CC4)CC3)c3cc(NS(C)(=O)=O)ccc32)c1 [Compound 198, 3-(5″- (methylsulfonamido)dispiro[cyclopropane-1,1′-cyclohexane-4′,3″-indoline]-1″-carbonyl)-N-(pentan-3-yl)benzenesulfonamide] | 26 nM |
| CC(C)(C)NS(=O)(=O)c1ccc(C(=O)N2CC3(CCCCC3)c3cc(NS(C)(=O)=O)ccc32)s1 [Compound 60, N-(tert-butyl)-5-(5′-(methylsulfonamido)spiro[cyclohexane-1,3′-indoline]-1′-carbonyl)thiophene-2-sulfonamide] | 1200 nM |
| CS(=O)(=O)Nc1ccc2c(c1)C1(CCC3(CC3)CC1)CN2C(=O)c1cccc(S(=O)(=O)NC2(CO)CC2)c1 [Compound 202, N-(1-(hydroxymethyl)cyclopropyl)-3-(5″- (methylsulfonamido)dispiro[cyclopropane-1,1′-cyclohexane-4′,3″-indoline]-1″-carbonyl)benzenesulfonamide] | 53 nM |
| CS(=O)(=O)Nc1ccc2c(c1)C1(CCC3(CC3)CC1)CN2C(=O)c1cccc(S(=O)(=O)NC2C=CCCC2)c1 (stereo not drawn) [Compound 196, N-(cyclohex-2-en-1-yl)-3-(5″- (methylsulfonamido)dispiro[cyclopropane-1,1′-cyclohexane-4′,3″-indoline]-1″-carbonyl)benzenesulfonamide] | 10 nM |

The remaining lines, values ahead:

| IC50 | SMILES |
| --- | --- |
| 63 nM | CC1(O)CN(S(=O)(=O)c2cccc(C(=O)N3CC4(CCC5(CC5)CC4)c4cc(NS(C)(=O)=O)ccc43)c2)C1 [Compound 255, N-(1″-(3-((3-hydroxy-3-methylazetidin-1-yl)sulfonyl)benzoyl)dispiro[cyclopropane-1,1′-cyclohexane-4′,3″-indolin]-5″- yl)methanesulfonamide] |
| 3 nM | O=C(c1ccc(C(O)C2CCCC2)o1)N1CC2(CCC3(CC3)CC2)c2cc(NS(=O)(=O)CCO)ccc21 (single isomer, unassigned) [Compound 368a] |
| 5.2 nM | COc1ccc(C(=O)N2CC3(CCC4(CC4)CC3)c3cc(NS(C)(=O)=O)ccc32)cc1S(=O)(=O)NC12CC(C1)C2 [Compound 311, N-(bicyclo[1.1.1]pentan-1-yl)-2-methoxy-5-(5″-(methylsulfonamido)dispiro[cyclopropane-1,1′-cyclohexane-4′,3″-indoline]-1″- carbonyl)benzenesulfonamide] |
| 72 nM | CC1(F)CCC2(CC1)CN(C(=O)c1cccc(S(=O)(=O)NC(C)(C)C)c1)c1ccc(NS(C)(=O)=O)cc12 (stereo not drawn) [Compound 329, N-(tert-butyl)-3-(4-fluoro-4-methyl-5′-(methylsulfonamido)spiro[cyclohexane-1,3′-indoline]-1′-carbonyl)benzenesulfonamide] |
| 6.3 nM | CS(=O)(=O)Nc1ccc2c(c1)C1(CCC3(CC3)CC1)CN2C(=O)c1csc(S(=O)(=O)N2CC3(CCC3)C2)c1 [Compound 279, N-(1″-(5-((2-azaspiro[3.3]heptan-2-yl)sulfonyl)thiophene-3-carbonyl)dispiro[cyclopropane-1,1′-cyclohexane-4′,3″-indolin]-5″- yl)methanesulfonamide] |
| 48 nM | CC(C)(C)NS(=O)(=O)c1cccc(C(=O)N2CC3(CCC4(CC4)CC3)c3cc(C(O)C(F)(F)F)ccc32)c1 (single isomer, unassigned) [Compound 338a] |
| 810 nM | Cc1cc(C(=O)N2CC3(CCC4(CC4)CC3)c3cc(NS(C)(=O)=O)ccc32)nc(CN2CCC(F)(F)CC2)n1 [Compound 343, N-(1″-(2-((4,4-difluoropiperidin-1-yl)methyl)-6-methylpyrimidine-4-carbonyl)dispiro[cyclopropane-1,1′-cyclohexane-4′,3″-indolin]-5″- yl)methanesulfonamide] |
| 18 nM | CS(=O)(=O)Nc1ccc2c(c1)C1(CCC3(CC3)CC1)CN2C(=O)c1ccnc(C(O)C2CCCC2)c1 (stereo not drawn) [Compound 316, N-(1″-(2-(cyclopentyl(hydroxy)methyl)isonicotinoyl)dispiro[cyclopropane-1,1′-cyclohexane-4′,3″-indolin]-5″- yl)methanesulfonamide] |
| 140 nM | CC(C)(C)NS(=O)(=O)c1cccc(C(=O)N2CC3(CC=CC3)c3cc(NS(C)(=O)=O)ccc32)c1 [Compound 243, N-(tert-butyl)-3-(5′-(methylsulfonamido)spiro[cyclopentane-1,3′-indolin]-3-en-1′-carbonyl)benzenesulfonamide] |
| 150 nM | CC(O)c1ccc2c(c1)C1(CCC3(CC3)CC1)CN2C(=O)c1cccc(S(=O)(=O)NC(C)(C)C)c1 (stereo not drawn) [Compound 332, N-(tert-butyl)-3-(5″-(1-hydroxyethyl)dispiro[cyclopropane-1,1′-cyclohexane-4′,3″-indoline]-1″-carbonyl)benzenesulfonamide] |
| 35 nM | CC(O)(c1cccc(C(=O)N2CC3(CCC4(CC4)CC3)c3cc(NS(C)(=O)=O)ccc32)c1)C1CCCC1 (stereo not drawn) [Compound 331, N-(1″-(3-(1-cyclopentyl-1-hydroxyethyl)benzoyl)dispiro[cyclopropane-1,1′-cyclohexane-4′,3″-indolin]-5″-yl)methanesulfonamide] |
| 38 nM | CCS(=O)(=O)Nc1ccc2c(c1)C1(CCC(F)(F)CC1)CN2C(=O)c1cc(S(=O)(=O)N2CC3(CCC3)C2)cs1 [Compound 272, N-(1′-(4-((2-azaspiro[3.3]heptan-2-yl)sulfonyl)thiophene-2-carbonyl)-4,4-difluorospiro[cyclohexane-1,3′-indolin]-5′-yl)ethanesulfonamide] |
| 20 nM | CS(=O)(=O)Nc1ccc2c(c1)C1(CCC3(CC3)CC1)CN2C(=O)c1cccc(C(O)C2CCC2)c1 (stereo not drawn) [Compound 313, N-(1″-(3-(cyclobutyl(hydroxy)methyl)benzoyl)dispiro[cyclopropane-1,1′-cyclohexane-4′,3″-indolin]-5″- yl)methanesulfonamide] |
| 31 nM | COCCS(=O)(=O)Nc1ccc2c(c1)C1(CCC3(CC3)CC1)CN2C(=O)c1cccc(S(=O)(=O)NC(C)(C)C)c1 [Compound 300, N-(tert-butyl)-3-(5″-((2-methoxyethyl)sulfonamido)dispiro [cyclopropane-1,1′-cyclohexane-4′,3″- indoline]-1″- carbonyl)benzenesulfonamide] |
| 34 nM | CS(=O)(=O)Nc1ccc2c(c1)C1(CCC3(CC3)CC1)CN2C(=O)c1cccc(S(=N)(=O)C2CCCC2)c1 (single isomer, unassigned) [Compound 287a] |
| 8 nM | CCS(=O)(=O)Nc1ccc2c(c1)C1(CCC3(CC3)CC1)CN2C(=O)c1csc(S(=O)(=O)NC(C)(C)C)c1 [Compound 275, N-(tert-butyl)-4-(5″- (ethylsulfonamido)dispiro[cyclopropane-1,1′-cyclohexane-4′,3″-indoline]-1″- carbonyl)thiophene-2-sulfonamide] |
